The numbers were not newly measured in patent publication US20100273829A1, “Methods for Treating Disorders Associated with Hyperlipidemia in a Mammal” (priority 2005, published 2010), which cites them from elsewhere.

“Also recorded” adds a separate entry of the source. Where two headings read alike, the source gives them in different places.

For series [1] the following is noted: ezetimibe 10 mg/day added to maximal statin regimen (80 mg/day), hoFH patients.

As to `O=C(NC1CCN(CCCCC2(C(=O)NCC(F)(F)F)c3ccccc3-c3ccccc32)CC1)c1ccccc1-c1ccc(C(F)(F)F)cc1` [BMS-201038, N-(2,2,2-Trifluorethyl)-9-[4-[4-[[[4′-(trifluoromethyl)[1,1′biphenyl]-2-Yl]carbonyl]amino]-1-piperidinyl]butyl]9H-fluorene-9-carboxamide], where the note is “patients, 25 mg/day BMS-201038 monotherapy”, the adverse events result is “gastrointestinal perturbations, abnormalities in liver function, and hepatic steatosis; also recorded: gastrointestinal disorders, abnormalities in liver function and/or hepatic steatosis”.

Consider `O=C1[C@H](CC[C@H](O)c2ccc(F)cc2)[C@@H](c2ccc(O)cc2)N1c1ccc(F)cc1` [ezetimibe], for which the “total reduction of LDL-C levels” value in series [1] is 27%.

As to `Cc1cc(C)c2c3ccccc3n(Cc3ccc([C@@H](C(=O)N[C@H](CO)c4ccccc4)C4CCCC4)cc3)c2n1` [implitapide, (2S)-2-cyclopentyl-2-[4-[(2,4-dimethyl-9H-pyrido[2,3-b]indol-9-yl)methyl]phenyl]-N-[(1S)-2-hydroxy-1-phenylethyl]ethanamide], where the note is “clinical studies, implitapide 80 mg/day or greater”, the therapeutic efficacy result is on record as “therapeutically effective”. Besides, the adverse events entry (clinical studies, implitapide 80 mg/day or greater (80 mg/day, 160 mg/day)) is “gastrointestinal disturbances, abnormalities in liver function, and hepatic steatosis; also recorded: gastrointestinal disorders, abnormalities in liver function and/or hepatic steatosis”.
